# pIC50: −log10 of the molar value.
# Biological target: human recombinant D-amino acid oxidase (Homo sapiens (Human), UniProt P14920)
# Assay: In vitro D-amino acid oxidase (DAAO) assay, 96-well plate
# Assay type: biochemical
# Conditions: human recombinant DAAO; D-serine 5 mM, FAD 1 μM, 20 min, room temperature, Tris buffer pH 8.5; read-out: Inhibition of DAAO IC50
# Protocol: (§1) A reliable 96-well plate D-amino acid oxidase (DAAO) assay was developed based on previously published reports (J. Biol. Chem. 277: 27782 (2002)). […] All reactions were carried out for 20 min at room temperature in a 100-μL volume in Tris buffer (50 mM, pH 8.5). Additionally, stock solutions and serial dilutions of potential DAO inhibitors were made in 10:90 DMSO:buffer with a final assay DMSO concentration of 1%.
# human recombinant D-amino acid oxidase, sequence (P14920 whole entry): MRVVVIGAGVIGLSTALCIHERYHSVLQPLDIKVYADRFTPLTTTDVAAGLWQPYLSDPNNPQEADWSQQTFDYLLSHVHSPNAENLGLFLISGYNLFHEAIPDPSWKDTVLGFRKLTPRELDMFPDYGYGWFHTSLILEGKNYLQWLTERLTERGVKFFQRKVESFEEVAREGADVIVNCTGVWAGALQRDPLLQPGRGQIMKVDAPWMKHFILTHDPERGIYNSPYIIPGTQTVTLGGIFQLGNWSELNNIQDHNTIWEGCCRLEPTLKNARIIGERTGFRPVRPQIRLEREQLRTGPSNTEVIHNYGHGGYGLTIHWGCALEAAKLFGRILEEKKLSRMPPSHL
row,SMILES,pIC50
1,"O=c1[nH]c(=S)n(CCc2ccccc2)nc1O [Compound 16, 6-Hydroxy-2-phenethyl-3-thioxo-3,4-dihydro-1,2,4-triazin-5(2H)-one]",7.30
2,"O=C(Cn1nc(O)c(=O)[nH]c1=O)c1ccccc1 [Compound 20, 6-Hydroxy-2-(2-oxo-2-phenylethyl)-1,2,4-triazine-3,5(2H,4H)-dione]",6.00
3,"O=c1[nH]c(=O)n(CC(O)c2ccccc2)nc1O (centres unmarked) [Compound 21, 6-Hydroxy-2-(2-hydroxy-2-phenylethyl)-1,2,4-triazine-3,5(2H,4H)-dione]",6.00
4,"O=c1[nH]c(=O)n(Cc2cccc3cccnc23)nc1O [Compound 25a, 6-Hydroxy-2-(quinolin-8-ylmethyl)-1,2,4-triazine-3,5(2H,4H)-dione]",5.52
5,"O=c1[nH]c(=O)n(Cc2ccc(F)c3ccccc23)nc1O [Compound 25b, 2-((4-Fluoronaphthalen-1-yl)methyl)-6-hydroxy-1,2,4-triazine-3,5(2H,4H)-dione]",6.70
6,"Cc1ccc(Cn2nc(O)c(=O)[nH]c2=O)c2ccccc12 [Compound 25c, 6-Hydroxy-2-((4-methylnaphthalen-1-yl)methyl)-1,2,4-triazine-3,5(2H,4H)-dione]",6.00
7,"O=c1[nH]c(=O)n(Cc2cccc3cc(Br)ccc23)nc1O [Compound 25d, 2-((6-Bromonaphthalen-1-yl)methyl)-6-hydroxy-1,2,4-triazine-3,5(2H,4H)-dione]",7.30
8,"O=c1[nH]c(=O)n(CCc2ccc(-c3ccccc3F)cc2)nc1O [Compound 30, 2-(2-(2′-Fluorobiphenyl-4-yl)ethyl)-6-hydroxy-1,2,4-triazine-3,5(2H,4H)-dione]",7.10

# Biological target: Porcine DAAO (Sus scrofa (Pig), UniProt P00371)
# Sequence (P00371 whole entry): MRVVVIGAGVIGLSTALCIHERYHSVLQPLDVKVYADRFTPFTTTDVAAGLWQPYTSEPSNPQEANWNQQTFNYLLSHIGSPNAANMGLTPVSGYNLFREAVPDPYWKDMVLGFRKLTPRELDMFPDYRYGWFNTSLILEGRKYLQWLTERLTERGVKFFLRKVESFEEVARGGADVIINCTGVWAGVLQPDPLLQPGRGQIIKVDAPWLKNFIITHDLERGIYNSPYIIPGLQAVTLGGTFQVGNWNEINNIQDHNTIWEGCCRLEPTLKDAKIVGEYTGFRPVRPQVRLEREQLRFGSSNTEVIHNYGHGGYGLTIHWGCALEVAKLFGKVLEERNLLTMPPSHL
# Assay: In vitro D-amino acid oxidase (DAAO) assay, porcine enzyme
# Assay type: biochemical
# Conditions: values marked *: Porcine DAAO was used to measure inhibitory potency; read-out: Inhibition of DAAO IC50
# Protocol: as §1
row,SMILES,pIC50
1,"CCOc1ccc(CCn2nc(O)c(=O)[nH]c2=O)cc1 [Compound 10t, 2-(4-Ethoxyphenethyl)-6-hydroxy-1,2,4-triazine-3,5(2H,4H)-dione]",6.52
2,"Cc1ccc2ccccc2c1Cn1nc(O)c(=O)[nH]c1=O [Compound 10u, 6-Hydroxy-2-((2-methylnaphthalen-1-yl)methyl)-1,2,4-triazine-3,5(2H,4H)-dione]",6.22
3,"O=c1[nH]c(=O)n(CCc2ccc(N3CCOCC3)cc2)nc1O [Compound 32, 6-Hydroxy-2-(4-morpholinophenethyl)-1,2,4-triazine-3,5(2H,4H)-dione]",6.00

# — US9505753B2, “Inhibitors of D-amino acid oxidase” (THE JOHNS HOPKINS UNIVERSITY, priority 2012, dated 2016)
